Measured values reported in US6849641B1, “Azaindole tyrosine kinase inhibitors” (Sugen, Inc., priority 1997, dated 2005).

Tests used:
human EGF-R = molecular target: T1, human EGF-R (Homo sapiens, UniProt P00533); experiment: EGF Receptor ELISA (EGF receptor kinase activity in cells engineered to express human EGF-R); assay type: cell-based; conditions: NIH 3T3/C7 cell line, EGF stimulated
T1 construct: expressed in transfected cells; host or cells: NIH 3T3/C7 cell line
Protocol: EGF Receptor kinase activity in cells genetically engineered to express human EGF-R can be measured as described below:
Materiala and Reagents. The following materials and reagents are used
a. EGF Ligand: stock concentration=16.5 μM; EGF 201, TOYOBO, Co., Ltd. Japan.
b. 05-101 (UBI) (a monoclonal antibody recognizing an EGFR extracellular domain).
C. Anti-phosphotyosine antibody (anti-Ptyr) (polyclonal).
d. Detection antibody: Goat anti-rabbit lgG horse radish peroxidase conjugate, TAGO, Inc., Burlingame, Calif.
h. Stock reagents of: • EDTA 100 mM pR 7.0 • Na3VO4 0.5 M • Na4(P2O7) 0.2 M
Procedure. The following protocol is used:
1. Coat ELISA plates (Corning, 96 well, Cat. #25805-96) with 05-101 antibody at 0.5 μg per well in PBS, 150 μL final volume/well, and store overnight at 4° C. Coated plates are good for up to 10 days when stored at 4° C.
2. On day of use, remove coating buffer and replace with blocking buffer (5% Carnation Instant NonFat Dry Milk in PBS). Incubate the plate, shaking, at room temperature (about 23° C. to 25° C) for 30 minutes. Just prior to use, remove blocking buffer and wash plate 4 times with TBST buffer.
1. NIH 3T3/C7 cell line (Honegger, et al., Cell 51:199-209, 1987) can be use for this assay.
2. Choose dishes having 80-90% confluence for the experiment. Trypsinize cells and stop reaction by adding 10% CS DMEM medium. Suspend cells in DMEM medium (10% CS DMEM medium) and centrifuge once at 1000 rpm at room temperature for 5 minutes.
3. Resuspend cells in seeding medium (DMEM, 0.5% bovine serum), and count the cells using trypan blue. Viability above 90% is acceptable. Seed cells in DMEM medium (0.5% bovine serum) at a density of 10,000 cells per well, 100 μL per well, in a 96 well microtiter plate. Incubate seeded cells in 5% CO2 at 37° C. for about 40 hours.
1. Check seeded cells for contamination using an inverted microscope. Dilute drug stock (10 mg/mL in DMSO) 1:10 in DMEM medium, then transfer 5 μL to a test well for a final drug dilution of 1:200 and a final DMSO concentration of 1%. Control wells receive DMSO alone. Incubate in 5% CO2 at 37° C. for one hour.
2. Prepare EGF ligand: dilute stock EGF in DMEM so that upon transfer of 10 μL dilute EGF (1:12 dilution), 25 nM final concentration is attained.
3. Prepare fresh 10 mL HNTG* sufficient for 100 μL per well wherein HNTG* comprises: HNTG stock (2.0 mL), milli-Q H2O (7.3 mL), EDTA, 100 mM, pH 7.0 (0.5 mL), Na3VO4 0.5 M (0.1 mL) and Na4(P2O7), 0.2 M (0.1 mL).
5. After two hours incubation with drug, add prepared EGF ligand to cells, 10 μL per well, to yield a final concentration of 25 nM. Control wells receive DMEM alone. Incubate, shaking, at room temperature, for 5 minutes.
6. Remove drug, EGF, and DMEM. Wash cells twice with PBS. Transfer HNTG* to cells, 100 μL per well. Place on ice for 5 minutes. […]

FLK-1 receptor = molecular target: T2, FLK-1 receptor (Mus musculus, UniProt P35918); experiment: FLK-1 ELISA (kinase activity of the FLK-1 receptor in cells engineered to express Flk-1); assay type: cell-based; conditions: NIH3T3 C7#3 cells (FLK-1 expressing), VEGF stimulated
T2 construct: expressed in transfected cells; host or cells: NIH3T3 C7#3 cells
T2 sequence (P35918 20-1345): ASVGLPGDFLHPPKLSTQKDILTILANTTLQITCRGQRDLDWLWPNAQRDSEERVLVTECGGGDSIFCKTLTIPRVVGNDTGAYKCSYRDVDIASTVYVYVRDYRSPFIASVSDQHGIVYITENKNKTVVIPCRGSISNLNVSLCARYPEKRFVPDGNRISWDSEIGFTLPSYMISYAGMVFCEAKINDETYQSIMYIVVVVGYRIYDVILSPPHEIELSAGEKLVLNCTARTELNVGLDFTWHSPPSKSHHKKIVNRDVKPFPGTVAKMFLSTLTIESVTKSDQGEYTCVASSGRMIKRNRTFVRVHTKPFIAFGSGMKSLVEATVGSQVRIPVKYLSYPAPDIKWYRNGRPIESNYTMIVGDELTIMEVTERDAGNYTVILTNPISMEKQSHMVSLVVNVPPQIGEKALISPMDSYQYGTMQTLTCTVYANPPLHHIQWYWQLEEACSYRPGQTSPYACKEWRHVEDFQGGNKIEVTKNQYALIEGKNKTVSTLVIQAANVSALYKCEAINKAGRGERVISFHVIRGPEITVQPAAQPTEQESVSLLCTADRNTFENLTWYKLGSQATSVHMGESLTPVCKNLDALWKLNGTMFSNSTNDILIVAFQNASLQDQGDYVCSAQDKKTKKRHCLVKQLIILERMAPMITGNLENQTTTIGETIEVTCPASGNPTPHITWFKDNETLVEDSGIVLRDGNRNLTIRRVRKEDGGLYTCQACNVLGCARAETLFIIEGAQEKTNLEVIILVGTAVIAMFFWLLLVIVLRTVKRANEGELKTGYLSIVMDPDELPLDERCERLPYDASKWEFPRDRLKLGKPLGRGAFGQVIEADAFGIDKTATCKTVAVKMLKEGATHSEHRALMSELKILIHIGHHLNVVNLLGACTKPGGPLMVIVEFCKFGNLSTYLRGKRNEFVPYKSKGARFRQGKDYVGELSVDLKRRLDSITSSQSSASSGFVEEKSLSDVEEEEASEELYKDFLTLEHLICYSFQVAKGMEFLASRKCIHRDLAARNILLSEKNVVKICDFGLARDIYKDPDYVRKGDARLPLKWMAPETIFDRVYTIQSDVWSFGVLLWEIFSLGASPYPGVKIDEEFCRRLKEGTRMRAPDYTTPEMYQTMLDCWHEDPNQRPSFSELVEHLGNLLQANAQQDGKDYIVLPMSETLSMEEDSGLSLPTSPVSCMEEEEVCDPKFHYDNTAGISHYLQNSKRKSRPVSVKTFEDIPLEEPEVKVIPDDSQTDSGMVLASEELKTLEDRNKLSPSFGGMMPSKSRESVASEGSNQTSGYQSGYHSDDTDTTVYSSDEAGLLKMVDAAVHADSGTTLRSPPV
Protocol: An ELISA assay is conducted to measure the kinase activity of the FLK-1 receptor and more specifically, the inhibition or activation of TK activity on the FLK-1 receptor. Specifically, the following assay can be conducted to measure kinase activity of the FLK-1 receptor in cells genetically engineered to express Flk-1.
Materials. The following reagents and supplies are used: • a. Corning 96-well ELISA plates (Corning Catalog No. 25805-96); • b. Cappel goat anti-rabbit IgG (catalog no. 55641); • c. PBS (Gibco Catalog No. 450-1300EB); • d. TBSW Buffer (50 mM Tris (pH 7.2), 150 mM NaCl and 0.1% Tween-20); • e. Ethanolamine stock (10% ethanolamine (pH 7.0), stored at 4° C.); • f. HNTG buffer (20 mM HEPES buffer (pH 7.5), 150 mM NaCl, 0.2% Triton X-100, and 10% glycerol); • g. EDTA (0.5 M (pH 7.0) as a 100× stock); • h. Sodium orthovanadate (0.5 M as a 100× stock); • i. Sodium pyrophosphate (0.2 M as a 100× stock); • j. NUNC 96 well V bottom polypropylene plates (Applied Scientific Catalog No. AS-72092); • k. NIH3T3 C7#3 Cells (FLK-1 expressing cells); • l. DMEM with 1× high glucose L-Glutamine (catalog No. 11965-050); • m. FBS, Gibco (catalog no. 16000-028); • n. L-glutamine, Gibco (catalog no. 25030-016); • o. VEGF, PeproTech, Inc. (catalog no. 100-20)(kept as 1 μg/100 μL stock in Milli-Q dH2O and stored at −20° C.; • p. Affinity purified anti-FLK-1 antiserum; • q. UB40 monoclonal antibody specific for phosphotyrosine (see, Fendley, et al., 1990, Cancer Research50:1550-1558); • r. EIA grade Goat anti-mouse IgG-POD (BioRad catalog no. 172-1011); • s. 2,2-azino-bis(3-ethylbenz-thiazoline-6-sulfonic acid (ABTS) solution (100 mM citric acid (anhydrous), 250 mM Na2HPO4 (pH 4.0), 0.5 mg/mL ABTS (Sigma catalog no. A-1888)), solution should be stored in dark at 4° C. until ready for use; • t. H2O2 (30% solution) (Fisher catalog no. H325); • u. ABTS/H2O2 (15mL ABTS solution, 2 μL H2O2) prepared 5 minutes before use and left at room temperature; • v. 0.2 M HCl stock in H2O; • w. dimethylsulfoxide (100%)(Sigma Catalog No. D-8418); and • y. Trypsin-EDTA (Gibco BRL Catalog No. 25200-049).
Protocol. The following protocol can be used for conducting the assay:
1. Coat Corning 96-well ELISA plates with 1.0 μg per well Cappel Anti-rabbit IgG antibody in 0.1 M Na2CO3 pH 9.6. Bring final volume to 150 μL per well. Coat plates overnight at 4° C. Plates can be kept up to two weeks when stored at 4° C.
2. Grow cells in Growth media (DMEM, supplemented with 2.0 mM L-Glutamine, 10% FBS) in suitable culture dishes until confluent at 37° C., 5% CO2.
3. Harvest cells by trypsinization and seed in Corning 25850 polystyrene 96-well round bottom cell plates, 25.000 cells/well in 200 μL of growth media.
4. Grow cells at least one day at 37° C., 5% CO2.
5. Wash cells with D-PBS 1×.
6. […]

T1 sequence (P00533 25-1210): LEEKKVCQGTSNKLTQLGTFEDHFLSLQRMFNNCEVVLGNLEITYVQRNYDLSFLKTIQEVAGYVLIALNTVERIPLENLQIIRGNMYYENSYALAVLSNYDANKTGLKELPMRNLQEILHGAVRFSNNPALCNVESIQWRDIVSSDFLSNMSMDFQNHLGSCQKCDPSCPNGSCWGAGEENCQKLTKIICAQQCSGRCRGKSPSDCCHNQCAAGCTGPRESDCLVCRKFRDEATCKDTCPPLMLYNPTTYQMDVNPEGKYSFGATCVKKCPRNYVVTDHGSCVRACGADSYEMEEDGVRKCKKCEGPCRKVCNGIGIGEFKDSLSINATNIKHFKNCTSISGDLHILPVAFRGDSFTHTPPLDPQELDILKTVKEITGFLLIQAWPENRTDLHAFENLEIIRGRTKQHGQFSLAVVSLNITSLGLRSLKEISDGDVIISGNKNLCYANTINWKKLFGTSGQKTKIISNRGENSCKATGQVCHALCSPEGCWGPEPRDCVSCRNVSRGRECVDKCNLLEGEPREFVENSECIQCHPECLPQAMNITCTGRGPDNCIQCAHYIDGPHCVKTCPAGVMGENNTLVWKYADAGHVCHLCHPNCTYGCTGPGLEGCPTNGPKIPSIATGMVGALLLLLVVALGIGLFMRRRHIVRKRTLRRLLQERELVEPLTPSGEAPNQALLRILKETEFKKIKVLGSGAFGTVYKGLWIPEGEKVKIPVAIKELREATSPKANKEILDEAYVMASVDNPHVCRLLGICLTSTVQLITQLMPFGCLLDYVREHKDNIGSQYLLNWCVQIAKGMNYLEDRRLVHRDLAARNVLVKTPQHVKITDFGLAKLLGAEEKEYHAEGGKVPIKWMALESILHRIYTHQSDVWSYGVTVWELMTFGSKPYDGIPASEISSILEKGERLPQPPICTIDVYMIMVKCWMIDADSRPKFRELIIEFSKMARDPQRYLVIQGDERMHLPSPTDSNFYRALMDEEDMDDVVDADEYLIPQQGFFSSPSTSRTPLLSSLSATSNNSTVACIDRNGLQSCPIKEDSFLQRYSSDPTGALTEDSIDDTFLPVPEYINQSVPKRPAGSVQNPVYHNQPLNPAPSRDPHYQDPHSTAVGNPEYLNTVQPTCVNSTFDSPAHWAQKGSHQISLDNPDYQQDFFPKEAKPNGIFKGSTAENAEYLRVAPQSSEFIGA

Cc1cc(C)c(C=C2C(=O)Nc3ncccc32)[nH]1 [3-(3,5-dimethyl-1H-pyrrol-2-ylmethylene)-1,3-dihydro-pyrrolo[2,3-b]pyridin-2-one]
IC50 (human EGF-R): > 100 µM | IC50 (FLK-1 receptor): 2.06 µM

O=C1Nc2ncccc2C1=Cc1cnc[nH]1 [3-(3H-imidazol-4-ylmethylene)-1,3-dihydro-pyrrolo[2,3-b]pyridin-2-one]
IC50 (human EGF-R): > 50 µM | IC50 (FLK-1 receptor): 17.6 µM

Cc1[nH]c(C=C2C(=O)Nc3ncccc32)c(C)c1CCC(=O)O [3-[2,4-dimethyl-5-(2-oxo-1,2-dihydro-pyrrolo[2,3-b]pyridin-3-ylidenemethyl)-1H-pyrrol-3-yl]-propionic acid]
IC50 (human EGF-R): > 50 µM | IC50 (FLK-1 receptor): 0.15 µM

Cc1c(CCC(=O)O)c[nH]c1C=C1C(=O)Nc2ncccc21 [3-[4-methyl-5-(2-oxo-1,2-dihydro-pyrrolo[2,3-b]pyridin-3-ylidenemethyl)-1H-pyrrol-3-yl]-propionic acid]
IC50 (human EGF-R): > 25 µM | IC50 (FLK-1 receptor): 0.96 µM
